{"source": "patent US8236756B2", "about": "“Prodrugs cleavable by CD26” (Consejo Superior de Investigaciones Clentificas (CSIC), priority 2003, dated 2012)", "key": {"purified CD26 [1]": {"molecular_target": "T1, purified CD26 (Homo sapiens, UniProt P27487)", "T1 construct": "made in house", "T1 sequence (P27487 whole entry)": "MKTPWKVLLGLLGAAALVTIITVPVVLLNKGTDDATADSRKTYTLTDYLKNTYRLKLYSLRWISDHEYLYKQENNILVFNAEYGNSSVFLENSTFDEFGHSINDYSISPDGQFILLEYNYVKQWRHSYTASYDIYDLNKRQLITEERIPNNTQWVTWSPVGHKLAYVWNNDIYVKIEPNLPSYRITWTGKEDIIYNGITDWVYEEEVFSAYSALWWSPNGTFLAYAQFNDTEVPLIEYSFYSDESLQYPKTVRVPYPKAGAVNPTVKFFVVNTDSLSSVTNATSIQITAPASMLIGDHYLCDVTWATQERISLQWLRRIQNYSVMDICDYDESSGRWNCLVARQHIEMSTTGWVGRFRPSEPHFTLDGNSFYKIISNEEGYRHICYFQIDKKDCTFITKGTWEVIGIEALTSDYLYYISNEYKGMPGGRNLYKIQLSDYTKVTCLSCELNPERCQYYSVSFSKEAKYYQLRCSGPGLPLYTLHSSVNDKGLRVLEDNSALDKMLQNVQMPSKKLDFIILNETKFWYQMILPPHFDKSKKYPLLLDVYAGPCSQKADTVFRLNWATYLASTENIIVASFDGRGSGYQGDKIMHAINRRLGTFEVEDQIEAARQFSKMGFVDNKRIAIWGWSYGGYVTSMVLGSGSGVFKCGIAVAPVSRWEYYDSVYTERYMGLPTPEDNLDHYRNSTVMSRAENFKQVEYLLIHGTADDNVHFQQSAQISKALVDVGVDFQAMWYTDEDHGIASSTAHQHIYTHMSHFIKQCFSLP", "assay": "Conversion of peptide prodrugs to parent compound by purified CD26 (HPLC)", "format": "biochemical", "procedure": "To reveal whether CD26 recognizes such synthetic di/tripeptide derivatives of lipophilic nucleoside analogues as a substrate, 50 μM CAM-405 or CAM-431 was exposed to 5.7 mUnits of purified CD26, and the conversion of CAM-405 or CAM-431 to respectively CAM-212 or CAM-403 (Val-NAP-TSAO) was recorded in function of incubation time by HPLC analysis. […] Within the first 10 min of the reaction, at least 20% of CAM-405 had been converted to CAM-212, fifty percent of the TSAO dipeptide derivative was converted to CAM-212 within 30 min of the reaction and ˜67% of CAM-405 was hydrolyse after 60 min. Thus, the reaction rate started already to slow down after the first 10 min of drug exposure (FIG. 2). Most likely, the release of the reaction product Val-Pro dose-dependently feed-back inhibited the CD26-catalysed dipeptidyl-peptidase reaction. […] Thus, in the presence of 50 μM CAM-405, hydrolysis of 50% of CAM-405 to CAM-212 results in the appearance of 25 μM Val-Pro, that is a concentration that (feed-back) inhibits the CD26 reaction by ˜50%. These findings explain why the CD26-catalysed reaction levels-off shortly after the start of the exposure of the drug to CD26. […] Thus, a further level of modulation of the rate of prodrug release can be introduced by choosing a dipeptide moiety that competes for the active site of CD26, until the dipeptide has diffused from the tissue wherein CD26 is present. The inhibitory activity of any dipeptide can be evaluated by the above mentioned assay.\nThe conversion rate in function of time is given in Table 1 for NAP-TSAO-dipeptides where the dipeptide consists of: Val-Pro, Val-D-Pro, Asp-Pro, Lys-Pro, Tyr-Pro, Gly-Pro, Val-4-hydroxyPro, Gly-3,4-dihydroxyPro, but also Val-Gly, Val-Ala, Val-Leu and Val-Phe. It is clear that the conversion rate to the parent NAP-TSAO differs depending the nature of the dipeptide. Also, when the terminal amine of the dipeptide has been blocked by a lipophilic group (i.e. methyl, Z or Fmoc), the prodrug looses measurable substrate activity for CD26.\nThe conversion rate in function of time is given in Table 2 for tetrapeptide NAP-TSAO compounds where the tetrapeptide consists of: Val-Pro-Val-Pro [SEQ ID no:6] (CAM 467), Val-Ala-Val-Pro [SEQ ID no:7] (CAM 473) or Lys-Pro-Asp-Pro [SEQ ID no:8] (CAM 477). […] Only traces of dipeptide prodrug (CAM 405) is seen as intermediate in the conversion of the tetrapeptide CAM 473 to NAP-TSAO.\n(§1) All enzyme activity assays were performed in Eppendorf tubes on a heating block at 37° C. To each tube were added 32 μl CD26 (at a final concentration of 1.5 milliUnits) or 10 μl foetal bovine serum (BS) (final concentration: 2.5% BS in PBS; preheated at 56° C. for 30 min) or 10 μl human serum (HS) (final concentration: 2.5% HS in PBS), 40 μl of appropriate concentrations of inhibitor (Diprotin A) solution in PBS (for the exact concentrations, see the legend to FIG. 5), CAM-405 (the substrate of the reaction) at […] (final concentration) and PBS to reach a total volume of 400 μl. The pH of the reaction mixture was 7.5, which is virtually identical to the physiological pH of plasma. The reaction was started by the addition of the enzyme or serum and carried out at 37° C. After 5 hr, 100 μl reaction mixture was taken from the Eppendorf tube and added to 200 μl cold methanol to precipitate the proteins. After 10 min standing on ice, the contents of the tubes were centrifuged and the supernatants analysed by HPLC on a reverse phase column (RP-8, Merck Laboratories). CAM-405 was separated from CAM-212 (the product of the reaction) by a gradient of 50 mM sodium phosphate+5 mM heptane sulfonic acid pH 3.2 (Buffer A) and acetonitrile (Buffer B) as follows: Buffer A: 98%+2% Buffer B, 2 min; linear gradient to 20% Buffer. […]"}, "[2]": {"assay": "Conversion of prodrugs to parent compound by human serum diluted in PBS", "format": "in vitro ADME", "procedure": "(§2) Human and bovine serum were incubated for 3 hr, 6 hr and/or 24 hr at 37° C. in the presence of 50 μM CAM-405. The sera were diluted in PBS at a final concentration of 0.5, 1, 2.5 or 5%. […] The longer the incubation time, and the higher the serum concentration used, the faster the conversion of CAM-405 to CAM-212 occurred (FIG. 4). As also noted for CD26, HS- and BS-catalysed reaction slowed down in function of time, and was not linearly proportional with serum concentration (FIG. 4). These findings provide again evidence for a pronounced feed-back inhibition of dipeptidyl-peptidase activity in human and bovine serum by the released Val-Pro dipeptide. HS was more efficient in converting CAM-405 to CAM-212 than BS (FIG. 4). Since 1% HS is able to hydrolyse ˜20% of 50 μM CAM-405 within 3 hrs of incubation, it could be calculated that undiluted serum would have been able to convert this prodrug amount to its parent compound at a hundred fold higher speed, that is, within 1.8 min, provided that no feed-back inhibition would have occurred (as expected in the intact organism where release of Pro-Val would immediately result in disappearance from the plasma due to several mechanisms including organ uptake, renal excretion, etc.).\nOnly a very limited amount of NAP-TSAO (but not D-Pro-NAP-TSAO) had been detected (FIG. 6).\n(§3) Ten percent BS or HS converted 40 to 70% of PI-2 to PI-1 in one hour (FIG. 10). Two percent BS and HS converted PI-2 to PI-1 by 8% and 25%, respectively. After 4 hrs, 35% and 95% of compound was hydrolyzed by BS and HS, respectively (FIG. 11).\n(§4) The TSAO derivatives depicted in FIG. 1 can be synthesised as described below. GlyPro-pNA (GP-pNA), Diprotin A and Val-Pro were purchased from Sigma-Aldrich (Bornem, Belgium). CD26 was purified as described before [De Meester et al. J. Immunol. Methods (1996), 189: 99-105]. Foetal bovine serum (FBS) was obtained from Integro (Dieren, The Netherlands). Human serum represented a pooled serum that was derived from 10 healthy volunteers (blood donors). Human lymphocyte CEM cells were derived from the ATCC (Rockville, Md.)."}, "[3]": {"assay": "Conversion of prodrugs to parent compound by bovine serum diluted in PBS", "format": "in vitro ADME", "conditions": "50 μM; 0.5-5% BS in PBS; 3, 6, 24 hr; 37° C.", "procedure": "as §2, §3, §4"}, "[4]": {"system": "T-lymphocytic CEM cell suspensions", "assay": "Conversion of Val-Pro-NAP-TSAO to NAP-TSAO by CEM cell suspensions", "format": "cell-based, human", "conditions": "ten million CEM cells in 200 μl PBS; 3 hrs; 37° C.", "procedure": "The conversion of Val-Pro-NAP-TSAO (CAM-405) to NAP-TSAO (CAM-212) also efficiently occurred by carefully washed T-lymphocytic CEM cell suspensions in PBS. Ten million CEM cells suspended in 200 μl PBS hydrolysed the Val-Pro moiety from CAM-405 by 65% within 3 hrs of incubation at 37° C. This amount of hydrolysis was found both in the PBS supernatant and in the CEM cell extracts. Presumably, CD26 present in the cell membrane of CEM cells had cleaved-off the Val-Pro from CAM-405 after which both truncated and intact prodrug had been taken up by the lymphocytic cells to an equal extent.\nas §4"}, "purified CD26 [5]": {"molecular_target": "T1, purified CD26", "assay": "Conversion of peptide prodrugs to parent compound by purified CD26 (HPLC)", "format": "biochemical", "conditions": "50 μM, 5.7 mUnits purified CD26, 37° C."}, "purified CD26 [6]": {"molecular_target": "T1, purified CD26", "assay": "Effect of CD26 inhibitor on conversion of CAM-405 to CAM-212 by purified CD26", "format": "biochemical", "conditions": "CD26 1.5 mUnits, 50 μM CAM-405", "procedure": "(§5) CD26-catalysed CAM-405 conversion to CAM-212 was recorded in the absence or presence of the CD26 inhibitor diprotin A (FIG. 5). […] These observations point to CD26 as the main and predominant enzyme responsible in HS and BS to remove the dipeptide part from the lipophilic NAP-TSAO dipeptide nucleoside analogue.\nas §1, with “Laboratories).” for “Laboratories). CAM-405 was separated from CAM-212 (the product of the reaction) by a gradient of 50 mM sodium phosphate+5 mM heptane sulfonic acid pH 3.2 (Buffer A) and acetonitrile (Buffer B) as follows: Buffer A: 98%+2% Buffer B, 2 min; linear gradient to 20% Buffer.”"}, "[7]": {"assay": "Effect of CD26 inhibitor on conversion of CAM-405 to CAM-212 by human serum", "format": "biochemical", "conditions": "2.5% HS in PBS, 50 μM CAM-405", "procedure": "as §5\nas §1, with “Laboratories).” for “Laboratories). CAM-405 was separated from CAM-212 (the product of the reaction) by a gradient of 50 mM sodium phosphate+5 mM heptane sulfonic acid pH 3.2 (Buffer A) and acetonitrile (Buffer B) as follows: Buffer A: 98%+2% Buffer B, 2 min; linear gradient to 20% Buffer.”"}, "[8]": {"assay": "Effect of CD26 inhibitor on conversion of CAM-405 to CAM-212 by bovine serum", "format": "biochemical", "conditions": "2.5% BS in PBS, 50 μM CAM-405", "procedure": "as §5\nas §1, with “Laboratories).” for “Laboratories). CAM-405 was separated from CAM-212 (the product of the reaction) by a gradient of 50 mM sodium phosphate+5 mM heptane sulfonic acid pH 3.2 (Buffer A) and acetonitrile (Buffer B) as follows: Buffer A: 98%+2% Buffer B, 2 min; linear gradient to 20% Buffer.”"}}}
{"compound": "Cc1cn(C2OC(CO[Si](C)(C)C(C)(C)C)C3(OS(=O)(=O)C=C3N)C2O[Si](C)(C)C(C)(C)C)c(=O)n(CCCNC(=O)[C@@H]2CCCN2C(=O)[C@@H](N)C(C)C)c1=O", "note": "(stereo partly drawn) [CAM-405, H-Val-Pro-NAP-TSAO]", "values": [{"measurement": "Conversion of CAM-405 to CAM-212, first 10 min", "setting": "purified CD26 [1]; 50 μM, 5.7 mUnits purified CD26, 37° C., 10 min", "result": "at least 20%"}, {"measurement": "Conversion of CAM-405 to CAM-212, within 30 min", "setting": "purified CD26 [1]; 50 μM, 5.7 mUnits purified CD26, 37° C., 30 min", "result": "fifty"}, {"measurement": "Conversion % to parent compound by purified CD26, 1 h", "setting": "purified CD26 [1]; Table 1, purified CD26 1.5 mUnits, 1 h", "result": 37, "unit": "%"}, {"measurement": "Conversion % to parent compound by purified CD26, 4 h", "setting": "purified CD26 [1]; Table 1, purified CD26 1.5 mUnits, 4 h", "result": 62, "unit": "%"}, {"measurement": "Conversion % to parent compound by purified CD26, 24 h", "setting": "purified CD26 [1]; Table 1, purified CD26 1.5 mUnits, 24 h", "result": 61, "unit": "%"}, {"measurement": "% conversion to parent compound by purified CD26, 1 h", "setting": "purified CD26 [1]; Table 2, purified CD26 1.5 mUnits, 1 h", "result": 37, "unit": "%"}, {"measurement": "% conversion to parent compound by purified CD26, 4 h", "setting": "purified CD26 [1]; Table 2, purified CD26 1.5 mUnits, 4 h", "result": 62, "unit": "%"}, {"measurement": "% conversion to parent compound by purified CD26, 24 h", "setting": "purified CD26 [1]; Table 2, purified CD26 1.5 mUnits, 24 h", "result": 61, "unit": "%"}, {"measurement": "Calculated time for undiluted serum to convert this prodrug amount to parent compound", "setting": "[2]; 10 μM, extrapolated from 1% human serum", "result": "less than 1.8 min"}, {"measurement": "Conversion of CAM-405 to CAM-212 by human serum, in words", "setting": "[2]; 50 μM, 0.5-5% HS in PBS, 3, 6, 24 hr, 37° C.", "result": "efficiently converted"}, {"measurement": "Hydrolysis of CAM-405 by 1% human serum within 3 hrs", "setting": "[2]; 50 μM, 1% HS in PBS, 3 hrs, 37° C.", "result": "~20", "unit": "%"}, {"measurement": "Calculated time for undiluted serum to convert this prodrug amount to parent compound", "setting": "[2]; undiluted human serum, extrapolated, provided no feed-back inhibition", "result": "≤ 1.8", "unit": "min"}, {"measurement": "Conversion of CAM-405 to CAM-212 by bovine serum, in words", "setting": "[3]", "result": "efficiently converted"}, {"measurement": "Hydrolysis of the Val-Pro moiety by CEM cells", "setting": "[4]", "result": 65, "unit": "%"}, {"measurement": "Hydrolysis of CAM-405, after 60 min", "setting": "purified CD26 [5]", "result": "~67", "unit": "%"}]}
{"compound": "Diprotin A", "values": [{"measurement": "Suppression of conversion of CAM-405 to CAM-212 by purified CD26 at 100 μM inhibitor", "setting": "purified CD26 [6]; 100 μM", "result": "> 50", "unit": "%"}, {"measurement": "Prevention of conversion of CAM-405 to CAM-212 by purified CD26 at 1000 μM inhibitor", "setting": "purified CD26 [6]; 1000 μM", "result": "nearly complete prevention"}, {"measurement": "Suppression of conversion of CAM-405 to CAM-212 by HS at 100 μM inhibitor", "setting": "[7]; 100 μM", "result": "> 50", "unit": "%"}, {"measurement": "Prevention of conversion of CAM-405 to CAM-212 in HS at 1000 μM inhibitor", "setting": "[7]; 1000 μM", "result": "nearly complete prevention"}, {"measurement": "Suppression of conversion of CAM-405 to CAM-212 by BS at 100 μM inhibitor", "setting": "[8]; 100 μM", "result": "> 50", "unit": "%"}, {"measurement": "Prevention of conversion of CAM-405 to CAM-212 in BS at 1000 μM inhibitor", "setting": "[8]; 1000 μM", "result": "nearly complete prevention"}]}
